Data on 21 molecules can be found in patent US20200069691A1, “HETEROCYCLIC COMPOUNDS AS HIV PROTEASE INHIBITORS” (Merck Sharp & Dohme Corp., priority 2016, published 2020).

This assay concerns the target T1, wild-type HIV-1 protease (Human immunodeficiency virus type 1 group M subtype B, UniProt P04585).
T1 construct: Escherichia coli expressed wild-type HIV-1 protease protein
Briefly: Assay for Inhibition of Microbial Expressed HIV Protease (peptide substrate cleavage, LC-MS/MS readout). It counts as biochemical. Particulars: E. coli expressed wild-type HIV-1 protease, mean of at least two independent experiments, read-out: HIV Pr Enzyme HIV1 PR IC50. The procedure, abridged:
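E. coli-expressed wild-type HIV-1 protease ([…]) was preincubated with inhibitor 30 min at room temperature in pH 5.5 acetate buffer (100 mM NaCl, 0.1% BSA). Then 400 μM octapeptide substrate was added and reacted 1 h at 30 °C; inhibition came from LC-MS/MS product peak areas, mean of ≥2 experiments.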

As to `Cc1cccc(-c2ncc3c(n2)CN(C(=O)c2cc(CN4C(=N)N[C@](CCCC(F)(F)F)(c5ccc(F)cc5)C4=O)ccc2C(F)(F)F)C3)c1` [Compound 104, (5R)-5-(4-fluorophenyl)-2-imino-3-[3-{[2-(3-methylphenyl)-5,7-dihydro-6H-pyrrolo[3,4-d]pyrimidin-6-yl]carbonyl}-4-(trifluoromethyl)benzyl]-5-(4,4,4-trifluorobutyl)imidazolidin-4-one], the half-inhibitory concentration (IC50) turned out to be 24.2 nM.

Take `N=C1NC(C[C@@H]2CCOC2)(c2ccccc2)C(=O)N1Cc1ccc(C(F)(F)F)c(C(=O)N2CCn3c(nnc3C(F)(F)F)C2)c1` (stereo partly drawn) [Compound 105, 2-imino-5-phenyl-5-[(3R)-tetrahydrofuran-3-ylmethyl]-3-[4-(trifluoromethyl)-3-{[3-(trifluoro-methyl)-5,6-dihydro[1,2,4]triazolo-[4,3-a]pyrazin-7(8H)-yl]carbonyl}-benzyl]limidazolidin-4-one]: the IC50 was 24.7 nM.

With `N=C1N[C@](CCCC(F)(F)F)(c2ccc(F)cc2)C(=O)N1Cc1ccc(C(F)(F)F)c(C(=O)N2Cc3cnc(N4CCCC4)nc3C2)c1` [Compound 106, (5R)-5-(4-fluorophenyl)-2-imino-3-{3-[(2-pyrrolidin-1-yl-5,7-dihydro-6H-pyrrolo[3,4-d]pyrimidin-6-yl)carbonyl]-4-(trifluoromethyl)-benzyl}-5-(4,4,4-trifluorobutyl)-imidazolidin-4-one], the IC50 was 25.4 nM.

For `N=C1N[C@](CCC2CC2)(c2ccc(F)cc2)C(=O)N1[C@@H]1CCOc2ccc(C(=O)N3Cc4nccnc4C3)cc21` [Compound 107, (5R)-5-(2-cyclopropylethyl)-3-[(4R)-6-(5,7-dihydro-6H-pyrrolo-[3,4-b]pyrazin-6-ylcarbonyl)-3,4-dihydro-2H-chromen-4-yl]-5-(4-fluorophenyl)-2-iminoimidazolidin-4-one], the IC50 worked out at 25.9 nM.

Regarding `N=C1N[C@](CCCC(F)(F)F)(c2ccc(F)cc2)C(=O)N1Cc1ccc(C(F)(F)F)c(C(=O)N2CCN(c3cccnc3)CC2)c1` [Compound 108, (5R)-5-(4-fluorophenyl)-2-imino-3-{3-[(4-pyridin-3-ylpiperazin-1-yl)carbonyl]-4-(trifluoromethyl)-benzyl}-5-(4,4,4-trifluorobutyl)-imidazolidin-4-one], the IC50 is 26.1 nM.

As for `CC(=O)N1CCN(C(=O)c2cc(CN3C(=N)N[C@](CCCC(F)(F)F)(c4ccc(F)cc4)C3=O)ccc2C(F)(F)F)CC1` [Compound 109, (5R)-3-{3-[(4-acetylpiperazin-1-yl)carbonyl]-4-(trifluoromethyl)-benzyl}-5-(4-fluorophenyl)-2-imino-5-(4,4,4-trifluorobutyl)-imidazolidin-4-one], the IC50 was determined as 26.5 nM.

As for `CC(C)CC[C@]1(c2ccccc2)NC(=N)N([C@@H]2CCS(=O)(=O)c3ccc(C(=O)N4Cc5nccnc5C4)cc32)C1=O` [Compound 111, (5R)-3-[(4R)-6-(5,7-dihydro-6H-pyrrolo[3,4-b]pyrazin-6-ylcarbonyl)-1,1-dioxido-3,4-dihydro-2H-thiochromen-4-yl]-2-imino-5-(3-methylbutyl)-5-phenylimidazolidin-4-one], the IC50 came to 28.3 nM.

For `COCC(=O)N1CCN(C(=O)c2cc(CN3C(=N)N[C@](CCCC(F)(F)F)(c4ccc(F)cc4)C3=O)ccc2C(F)(F)F)CC1` [Compound 112, (5R)-5-(4-fluorophenyl)-2-imino-3-[3-{[4-(methoxyacetyl)piperazin-1-yl]carbonyl}-4-(trifluoromethyl)benzyl]-5-(4,4,4-trifluorobutyl)imidazolidin-4-one], the IC50 turned out to be 30.7 nM.

On to `N=C1N[C@](CCCC(F)(F)F)(c2ccc(F)cc2)C(=O)N1Cc1ccc(C(F)(F)F)c(C(=O)N2Cc3cnc(-c4cnc(-c5ccc(F)cc5)o4)nc3C2)c1` [Compound 113, (5R)-5-(4-fluorophenyl)-3-[3-({2-[2-(4-fluorophenyl)-1,3-oxazol-5-yl]-5,7-dihydro-6H-pyrrolo[3,4-d]pyrimidin-6-yl}carbonyl)-4-(trifluoromethyl)benzyl]-2-imino-5-(4,4,4-trifluorobutyl)imidazolidin-4-one], for which the IC50 amounted to 31.9 nM.

Consider `N=C1NC(CCC2CC2)(c2cccc(C(F)(F)F)c2)C(=O)N1Cc1ccc(C(F)(F)F)c(C(=O)N2Cc3nccnc3C2)c1` (stereo not drawn) [Compound 114, 5-(2-cyclopropylethyl)-3-[3-(5,7-dihydro-6H-pyrrolo[3,4-b]pyrazin-6-ylcarbonyl)-4-(trifluoromethyl)-benzyl]-2-imino-5-[3-(trifluoromethyl)-phenyl]-imidazolidin-4-one], for which the IC50 is 34.5 nM.

As for `CNC(=O)N1CCN(C(=O)c2cc(CN3C(=N)N[C@](CCCC(F)(F)F)(c4ccc(F)cc4)C3=O)ccc2C(F)(F)F)CC1` [Compound 115, 4-{[5-{[(4R)-4-(4-fluorophenyl)-2-imino-5-oxo-4-(4,4,4-trifluoro-butyl)imidazolidin-1-yl]methyl}-2-(trifluoromethyl)phenyl]carbonyl}-N-methylpiperazine-1-carboxamide], the IC50 was 36.5 nM.

With `N=C1N[C@](CCCC(F)(F)F)(c2ccc(F)cc2)C(=O)N1[C@@H]1CCCc2ccc(C(=O)N3Cc4nccnc4C3)cc21` [Compound 116, (5R)-3-[(1R)-7-(5,7-dihydro-6H-pyrrolo[3,4-b]pyrazin-6-ylcarbonyl)-1,2,3,4-tetrahydro-naphthalen-1-yl]-5-(4-fluoro-phenyl)-2-imino-5-(4,4,4-trifluorobutyl)imidazolidin-4-one], the IC50 came to 37.8 nM.

For `N=C1N[C@](CCCC(F)(F)F)(c2ccc(F)cc2)C(=O)N1Cc1ccc(C(F)(F)F)c(C(=O)N2Cc3cnc(-c4ccc(-n5nccn5)cc4)nc3C2)c1` [Compound 117, (5R)-5-(4-fluorophenyl)-2-imino-3-[3-({2-[4-(2H-1,2,3-triazol-2-yl)phenyl]-5,7-dihydro-6H-pyrrolo[3,4-d]pyrimidin-6-yl}carbonyl)-4-(trifluoromethyl)-benzyl]-5-(4,4,4-trifluorobutyl)-imidazolidin-4-one], the IC50 was 38.5 nM.

`N=C1N[C@](CCCC(F)(F)F)(c2ccc(F)cc2)C(=O)N1Cc1ccc(C(F)(F)F)c(C(=O)N2CCN(c3ccccc3)CC2)c1` [Compound 119, (5R)-5-(4-fluorophenyl)-2-imino-3-{3-[(4-phenylpiperazin-1-yl)carbonyl]-4-(trifluoromethyl)-benzyl}-5-(4,4,4-trifluorobutyl)-imidazolidin-4-one]: the IC50 was 42.1 nM.

Turning to `N=C1N[C@](CCCC(F)(F)F)(c2ccc(F)cc2)C(=O)N1Cc1ccc(C(F)(F)F)c(C(=O)N2Cc3cnc(-c4cc(F)cc(F)c4)nc3C2)c1` [Compound 121, (5R)-3-[3-{[2-(3,5-difluorophenyl)-5,7-dihydro-6H-pyrrolo[3,4-d]pyrimidin-6-yl]carbonyl}-4-(trifluoromethyl)benzyl]-5-(4-fluorophenyl)-2-imino-5-(4,4,4-trifluorobutyl)imidazolidin-4-one], the IC50 was 44.3 nM.

Turning to `N=C1N[C@](CCCC(F)(F)F)(c2ccc(F)cc2)C(=O)N1Cc1ccc(C(F)(F)F)c(C(=O)N2CCn3nc(C4CC4)nc3C2)c1` [Compound 122, (5R)-3-{3-[(2-cyclopropyl-5,6-dihydro[1,2,4]triazolo[1,5-a]pyrazin-7(8H)-yl)carbonyl]-4-(trifluoromethyl)benzyl}-5-(4-fluorophenyl)-2-imino-5-(4,4,4-trifluorobutyl)imidazolidin-4-one], the IC50 is 48.1 nM.

On to `CC(C)CC(c1ccc(C(F)(F)F)c(C(=O)N2CCn3c(nnc3C(F)(F)F)C2)c1)N1C(=N)N[C@](C[C@@H]2CCOC2)(c2ccc(F)cc2)C1=O` (stereo partly drawn) [Compound 123, (5R)-5-(4-fluorophenyl)-2-imino-3-{3-methyl-1-[4-(trifluoromethyl)-3-{[3-(trifluoromethyl)-5,6-dihydro-[1,2,4]triazolo[4,3-a]pyrazin-7(8H)-yl]carbonyl}phenyl]butyl}-5-[(3R)-tetrahydrofuran-3-ylmethyl]-imidazolidin-4-one], for which the IC50 amounted to 55.7 nM.

In the case of `CC(C)CC[C@]1(c2ccccc2)NC(=N)N([C@@H]2CCCc3ccc(C(=O)N4Cc5nccnc5C4)cc32)C1=O` [Compound 124, (5R)-3-[(1R)-7-(5,7-dihydro-6H-pyrrolo[3,4-b]pyrazin-6-ylcarbonyl)-1,2,3,4-tetrahydro-naphthalen-1-yl]-2-imino-5-(3-methylbutyl)-5-phenylimidazolidin-4-one], the IC50 turned out to be 57 nM.

Take `N=C1NC(CCC2CC2)(c2ccc(C(F)(F)F)cc2)C(=O)N1Cc1ccc(C(F)(F)F)c(C(=O)N2CCn3c(nnc3C(F)(F)F)C2)c1` (stereo not drawn) [Compound 125, 5-(2-cyclopropylethyl)-2-imino-5-[4-(trifluoromethyl)phenyl]-3-[4-(trifluoromethyl)-3-{[3-(trifluoromethyl)-5,6-dihydro-[1,2,4]triazolo[4,3-a]pyrazin-7(8H)-yl]carbonyl}benzyl] imidazolidin-4-one]: the IC50 is 57.2 nM.

Turning to `CC(C)CC[C@]1(c2ccccc2)NC(=N)N(Cc2ccc(S(C)(=O)=O)c(C(=O)N3Cc4nccnc4C3)c2)C1=O` [Compound 126, (5R)-3-[3-(5,7-dihydro-6H-pyrrolo[3,4-b]pyrazin-6-ylcarbonyl)-4-(methylsulfonyl)-benzyl]-2-imino-5-(3-methylbutyl)-5-phenylimidazolidin-4-one], the half-inhibitory concentration (IC50) turned out to be 60.2 nM.

Turning to `N=C1N[C@](CCCC(F)(F)F)(c2ccc(F)cc2)C(=O)N1Cc1ccc(C(F)(F)F)c(C(=O)N2CCN(CC(F)(F)F)CC2)c1` [Compound 127, (5R)-5-(4-fluorophenyl)-2-imino-5-(4,4,4-trifluorobutyl)-3-[3-{[4-(2,2,2-trifluoroethyl)piperazin-1-yl]carbonyl}-4-(trifluoromethyl)-benzyl]imidazolidin-4-one], the IC50 came out at 65.1 nM.

For orientation: IC50 means the point on the concentration scale where inhibition reaches its midpoint.
